Assay results: patent US5786332A, “Cytokine restraining agents and methods of use in pathologies and conditions associated with altered cytokine levels” (Trega Biosciences, Inc., priority 1995, dated 1998)

What was measured:
Sprague-Dawley rats = assay: Interleukin-1β-induced hyperalgesia (paw pressure); assay type: in vivo; conditions: 1 μg IP; 2 hr after IL-1β intra plantar
Description: These experiments were performed using a modification of the methods described by Poole et al., Br. J. Pharmacol. 106:489-492 (1992); Follenfant et al., Br. J. Pharmacol. 98:41-43 (1989); and Randall and Sellito, Arch. Internatl. Pharmacodyn. 111:409-419 (1957), each of which is incorporated herein by reference. Adult male Sprague-Dawley rats (175-275 g) were tested for hyperalgesia by a paw pressure technique using variable pressure instrumentation (IITC Life Sciences; Woodland Hills, Calif.). Rats were acclimated to the housing environment and were handled for three days prior to beginning a training session. On the day before the hyperalgesia experiments was to begin, each rat was placed into a sock and two variable paw pressure tests were performed 15 min apart.
Approximately 5-10% of the rats were non-responders and were eliminated from further experiments.
Animals that responded to the paw pressure were pretreated by IP injection of various concentrations of EX-2 in a volume of 1 ml/kg (treated) or saline, alone (control). After 20 min, 100 μl of IL-1β (1U/100 μl) was administered to rats via intra plantar injection. Two hr after IL-1 administration, rats were subjected to two additional paw pressure tests and the increase in mm Hg of pressure that could be applied to the EX-2-treated rats as compared to the control rats was determined.

[1] = tested on: inducible nitric oxide synthase (INOS); assay: Inducible nitric oxide synthase induction in rat aorta smooth muscle cells (cGMP RIA); assay type: cell-based; conditions: RASMC; 0.1 or 1 μM EX-2 before LPS, IL-1β or TNF-α (not specified which)
Description: A. Inducible Nitric Oxide Synthase (INOS): Rat aorta smooth muscle cells (RASMC) were isolated from male rats (325-350 g) using the previously published procedures of Gelsterfer et al., Circ. Res. 62:749-756 (1988), which is incorporated herein by reference. Cells were positively identified as smooth muscle cells by indirect immunofluorescent staining for anti-α-actin, using a mouse anti-α-actin antibody and anti-mouse IgG FITC conjugate. Cells were grown in T-75 tissue culture flasks (Corning Delbelco's Glass, Inc.; Corning, N.Y.) in 50% F12 and 50% Delbelco's Modified Eagle Medium (DMEM) supplemented with 10% bovine serum, 0.2 g/l L-glutamine, penicillin (100 U/ml) and streptomycin (0.1 mg/ml).
Cells between passages 1-5 were pretreated with one of the following: vehicle, LPS (1 μg/ml), IL-1β (10 U/ml), or TNF-α (100 U/ml) for 6 hr. […] Accumulation of cGMP was determined following exposure to 0.3 mM 3-isobutyl-1-methyl xanthine (IBMX) in the presence or absence of 1 mM L-arginine. […] The HCl extract was analyzed for cGMP by RIA and the NaOH-solubilized cell remnants were used for protein determination.
Male Sprague-Dawley rats were anesthetized with 55 mg/kg pentobarbital IP. […] RASMC were incubated with plasma from control or EX-2-treated animals and the ability of plasma components to inhibit the induction of INOS by LPS or IL-1β was determined as above. […]

For “Ac-Nle-Gln-His-(D)Phe-Arg-(D)Trp-Gly-NH2 [EX-2]”, the “Reduction in IL-1-induced Hyperalgesia (increase in tolerated paw pressure vs control)” value (Sprague-Dawley rats) was 125% and the “% Reduction of induced increase in cGMP (pmol/100 mg/5 min), INOS” value [1] was 60%.
